In patent US9096500B2, “Acyl sulfonamide compounds” (Pfizer Limited, priority 2010, dated 2015) one finds IC50 data, which are given here for 30 molecules.

Where a name gives a salt, the structure may show the parent alone. Where only a bound is given, the exact number is not on record here.

For this test, the target named is T1, Nav1.7 (or SCN9A) channel (Homo sapiens, UniProt Q15858).
T1 construct: expressed in transfected cells
T1 sequence (Q15858 whole entry): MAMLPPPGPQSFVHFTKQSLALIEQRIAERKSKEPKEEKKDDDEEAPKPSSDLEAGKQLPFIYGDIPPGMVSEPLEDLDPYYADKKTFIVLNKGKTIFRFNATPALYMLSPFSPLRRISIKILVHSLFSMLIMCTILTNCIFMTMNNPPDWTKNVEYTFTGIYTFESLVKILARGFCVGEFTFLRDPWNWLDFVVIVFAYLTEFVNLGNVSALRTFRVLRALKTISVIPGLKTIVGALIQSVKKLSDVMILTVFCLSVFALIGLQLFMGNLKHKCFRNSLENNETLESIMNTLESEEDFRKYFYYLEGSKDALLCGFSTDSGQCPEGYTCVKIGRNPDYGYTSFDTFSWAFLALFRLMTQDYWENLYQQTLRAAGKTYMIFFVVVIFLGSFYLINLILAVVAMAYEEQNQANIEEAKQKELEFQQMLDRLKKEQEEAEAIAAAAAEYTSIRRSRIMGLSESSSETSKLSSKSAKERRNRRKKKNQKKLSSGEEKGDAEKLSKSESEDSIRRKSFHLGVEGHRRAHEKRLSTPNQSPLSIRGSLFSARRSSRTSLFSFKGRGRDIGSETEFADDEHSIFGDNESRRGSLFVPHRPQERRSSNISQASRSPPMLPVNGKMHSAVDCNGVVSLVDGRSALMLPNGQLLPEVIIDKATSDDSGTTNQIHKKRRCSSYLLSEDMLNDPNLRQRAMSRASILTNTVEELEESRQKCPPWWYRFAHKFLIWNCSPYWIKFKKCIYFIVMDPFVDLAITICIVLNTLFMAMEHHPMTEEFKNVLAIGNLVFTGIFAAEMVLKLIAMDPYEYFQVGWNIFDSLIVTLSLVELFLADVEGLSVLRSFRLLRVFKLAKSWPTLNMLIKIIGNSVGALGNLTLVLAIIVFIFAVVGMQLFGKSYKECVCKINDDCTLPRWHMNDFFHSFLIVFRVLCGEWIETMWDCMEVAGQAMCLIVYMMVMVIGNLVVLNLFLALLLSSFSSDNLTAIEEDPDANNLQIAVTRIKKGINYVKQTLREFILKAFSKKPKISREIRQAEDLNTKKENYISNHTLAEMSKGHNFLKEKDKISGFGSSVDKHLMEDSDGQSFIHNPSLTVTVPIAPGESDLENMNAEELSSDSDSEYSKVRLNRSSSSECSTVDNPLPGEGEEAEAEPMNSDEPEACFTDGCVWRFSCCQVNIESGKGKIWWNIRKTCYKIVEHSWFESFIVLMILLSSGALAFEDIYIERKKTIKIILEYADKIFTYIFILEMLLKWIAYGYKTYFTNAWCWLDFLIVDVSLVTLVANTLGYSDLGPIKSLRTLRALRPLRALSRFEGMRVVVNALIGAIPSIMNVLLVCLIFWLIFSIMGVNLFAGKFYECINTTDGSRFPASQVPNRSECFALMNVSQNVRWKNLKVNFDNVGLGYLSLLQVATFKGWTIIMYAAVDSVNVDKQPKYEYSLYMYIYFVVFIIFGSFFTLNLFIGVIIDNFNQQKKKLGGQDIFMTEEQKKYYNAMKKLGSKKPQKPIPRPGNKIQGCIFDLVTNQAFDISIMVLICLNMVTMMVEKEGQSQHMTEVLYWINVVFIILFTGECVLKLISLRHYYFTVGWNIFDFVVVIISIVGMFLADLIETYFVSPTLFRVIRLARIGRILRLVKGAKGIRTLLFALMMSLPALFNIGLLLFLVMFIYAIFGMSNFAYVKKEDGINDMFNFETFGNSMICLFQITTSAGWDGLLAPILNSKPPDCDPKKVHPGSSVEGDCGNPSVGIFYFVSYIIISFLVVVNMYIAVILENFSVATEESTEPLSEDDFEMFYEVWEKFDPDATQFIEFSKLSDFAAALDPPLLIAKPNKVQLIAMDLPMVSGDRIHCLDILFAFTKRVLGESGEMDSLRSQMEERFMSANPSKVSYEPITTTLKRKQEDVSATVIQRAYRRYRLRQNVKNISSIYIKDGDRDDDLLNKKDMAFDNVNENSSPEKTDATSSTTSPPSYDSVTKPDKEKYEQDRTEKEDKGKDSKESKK
Briefly: Nav1.7 (hSCN9A) electrophysiology assay, PatchXpress platform. The test is classed as cell-based. The following applies: estimated IC50 from single point electrophysiology data, HEK cells stably expressing hSCN9A, held at V1/2 of inactivation, read-out: Nav1.7 EIC50. The protocol: The ability of the compounds of formula (I) to block the Nav1.7 (or SCN9A) channel were measured using the assay described below.
Human Embryonic Kidney (HEK) cells were transfected with an hSCN9A construct using lipofectamine reagent (Invitrogen), using standard techniques. Cells stably expressing the hSCN9A constructs were identified by their resistance to G-418 (400 μg/ml). Clones were screened for expression using the whole-cell voltage-clamp technique.
HEK cells stably transfected with hSCN9A were maintained in DMEM medium supplemented with 10% heat-inactivated fetal bovine serum and 400 μg/ml G-418 in an incubator at 37° C. with a humidified atmosphere of 10% CO2. For HTS, cells were harvested from flasks by trypsinization and replated in an appropriate multi-well plate (typically 96 or 384 wells/plate) such that confluence would be achieved within 24 hours of plating. For electrophysiological studies, cells were removed from the culture flask by brief trypsinization and re-plated at low density onto glass cover slips. Cells were typically used for electrophysiological experiments within 24 to 72 hours after plating.
Cover slips containing HEK cells expressing hSCN9A were placed in a bath on the stage of an inverted microscope and perfused (approximately 1 ml/minutes) with extracellular solution of the following composition: 138 mM NaCl, 2 mM CaCl2, 5.4 mM KCl, 1 mM MgCl2, 10 mM glucose, and 10 mM HEPES, pH 7.4, with NaOH. […] The osmolarity of the extracellular and intracellular solutions was 300 mOsm/kg and 295 mOsm/kg, respectively. All recordings were made at room temperature (22-24° C.) using AXOPATCH 200B amplifiers and PCLAMP software (Axon Instruments, Burlingame, Calif.).
hSCN9A currents in HEK cells were measured using the whole-cell configuration of the patch-clamp technique (Hamill et al., 1981). Uncompensated series resistance was typically 2 to 5 mega ohms and >85% series resistance compensation was routinely achieved. […] Current records were acquired at 20 to 50 KHz and filtered at 5 to 10 KHz.
HEK cells stably transfected with hSCN9A were viewed under Hoffman contrast optics and placed in front of an array of flow pipes emitting either control or compound-containing extracellular solutions. All compounds were dissolved in dimethyl sulfoxide to make 10 mM stock solutions, which were then diluted into extracellular solution to attain the final concentrations desired. […] The voltage-dependence of inactivation was determined by applying a series of depolarizing prepulses (8 sec long in 10 mV increments) from a negative holding potential. The voltage was then immediately stepped to 0 mV to assess the magnitude of the sodium current. Currents elicited at 0 mV were plotted as a function of prepulse potential to allow estimation of the voltage at which 50% of the channels were inactivated (midpoint of inactivation or V1/2). Compounds were tested for their ability to inhibit hSCN9A sodium channels by activating the channel with a 20 msec voltage step to 0 mV following an 8 second conditioning prepulse to the empirically determined V1/2. Compound effect (% inhibition) was determined by difference in current amplitude before and after application of test compounds. […] Inhibition values <20% and >80% were excluded from the calculation.
Electrophysiological assays were conducted with PatchXpress 7000 hardware and associated software (Molecular Devices Corp). All assay buffers and solutions were identical to those used in conventional whole-cell voltage clamp experiments described above. hSCN9A cells were grown as above to 50%-80% confluency and harvested by trypsinization. Trypsinized cells were washed and resuspended in extracellular buffer at a concentration of 1×10^6 cells/ml. The onboard liquid handling facility of the PatchXpress was used for dispensing cells and application of test compounds.
Take `CCc1ccc(OCc2ccc(C(=O)NS(C)(=O)=O)c(F)c2)cc1` [Example 40, 4-[(4-Ethylphenoxy)methyl]-2-fluoro-N-(methylsulfonyl)benzamide diethylamine salt]: the IC50 is 560 nM.
Then `CCc1ccc(OCc2ccc(C(=O)NS(C)(=O)=O)c(OC)c2)cc1` [Example 41, 4-[(4-Ethylphenoxy)methyl]-2-methoxy-N-(methylsulfonyl)benzamide diethylamine salt], with 3700 nM; and `CCc1ccc(OCc2ccc(C(=O)NS(C)(=O)=O)cc2OC)cc1` [Example 42, 4-[(4-Ethylphenoxy)methyl]-3-methoxy-N-(methylsulfonyl)benzamide diethylamine salt], with 250 nM; and `CCc1ccc(OCc2ccc(C(=O)NS(C)(=O)=O)c(C)c2)cc1` [Example 43, 4-[(4-Ethylphenoxy)methyl]-2-methyl-N-(methylsulfonyl)benzamide diethylamine salt], with 4200 nM.
Next, `CS(=O)(=O)NC(=O)c1cc(F)c(COc2ccc(C#N)cc2Cl)cc1F` [Example 44, 4-[(2-Chloro-4-cyanophenoxy)methyl]-2,5-difluoro-N-(methylsulfonyl)benzamide]: 2000 nM; `CS(=O)(=O)NC(=O)c1cc(F)c(COc2ccc(Cl)c(C#N)c2)cc1F` [Example 47, 4-[(4-Chloro-3-cyanophenoxy)methyl]-2,5-difluoro-N-(methylsulfonyl)benzamide]: 1400 nM.
Regarding `CS(=O)(=O)NC(=O)c1cc(F)c(COc2ccc(F)c(F)c2)cc1F` [Example 48, 4-[(3,4-Difluorophenoxy)methyl]-2,5-difluoro-N-(methylsulfonyl)benzamide], the IC50 was 1100 nM.
Take `CS(=O)(=O)NC(=O)c1cc(F)c(COc2ccc(Cl)c(F)c2)cc1F` [Example 49, 4-[(4-Chloro-3-fluorophenoxy)methyl]-2,5-difluoro-N-(methylsulfonyl)benzamide]: the IC50 was 160 nM.
For `CS(=O)(=O)NC(=O)c1cc(F)c(COc2ccc(Cl)c(OC(F)F)c2)cc1F` [Example 50, 4-{[4-chloro-3-(difluoromethoxy)phenoxy]methyl}-2,5-difluoro-N-(methylsulfonyl)benzamide], the IC50 was 220 nM.
Next, `CS(=O)(=O)NC(=O)c1cc(F)c(COc2ccc(Cl)c(OC(F)(F)F)c2)cc1F` [Example 51, 4-((4-Chloro-3-(trifluoromethoxy)phenoxy)methyl)-2,5-difluoro-N-(methylsulfonyl)benzamide]: 12 nM; `CS(=O)(=O)NC(=O)c1cc(F)c(COc2ccc(OC(F)F)c(Cl)c2)cc1F` [Example 52, 4-{[3-Chloro-4-(difluoromethoxy)phenoxy]methyl}-2,5-difluoro-N-(methylsulfonyl)benzamide]: 130 nM; `CS(=O)(=O)NC(=O)c1cc(F)c(COc2ccc(OC(F)(F)F)c(Cl)c2)cc1F` [Example 53, 4-((3-Chloro-4-(trifluoromethoxy)phenoxy)methyl)-2,5-difluoro-N-(methylsulfonyl)benzamide]: 13 nM.
Take `CS(=O)(=O)NC(=O)c1cc(F)c(COc2ccc(Cl)c(C(F)(F)F)c2)cc1F` [Example 54, 4-((4-Chloro-3-(trifluoromethyl)phenoxy)methyl)-2,5-difluoro-N-(methylsulfonyl)benzamide]: the IC50 is 130 nM.
Next, `CS(=O)(=O)NC(=O)c1cc(F)c(COc2cc(F)ccc2F)cc1F` [Example 55, 4-[(2,5-Difluorophenoxy)methyl]-2,5-difluoro-N-(methylsulfonyl)benzamide]: 570 nM; `CS(=O)(=O)NC(=O)c1cc(F)c(COc2cccc(OC(F)(F)F)c2)cc1F` [Example 56, 4-[(3-Trifluoromethoxy)methyl]-2,5-difluoro-N-(methylsulfonyl)benzamide]: 88 nM.
Take `CS(=O)(=O)NC(=O)c1cc(F)c(COc2cc(F)c(F)cc2F)cc1F` [Example 57, 2,5-Difluoro-N-(methylsulfonyl)-4-[(2,4,5-trifluorophenoxy)methyl]benzamide]: the IC50 is 1100 nM.
As for `CS(=O)(=O)NC(=O)c1cc(Cl)c(OCc2ccc(C(F)(F)F)c(Cl)c2)cc1F` [Example 58, 5-Chloro-4-(3-chloro-4-(trifluoromethyl)benzyloxy)-2-fluoro-N-(methylsulfonyl)benzamide], the IC50 is 21 nM.
Then `CS(=O)(=O)NC(=O)c1cc(Cl)c(OCc2ccc(Cl)c(C(F)(F)F)c2)cc1F` [Example 59, 5-Chloro-4-(4-chloro-3-(trifluoromethyl)benzyloxy)-2-fluoro-N-(methylsulfonyl)benzamide], with 14 nM; and `CS(=O)(=O)NC(=O)c1cc(Cl)c(COc2ccc(OC(F)(F)F)c(Cl)c2)cc1F` [Example 60, 5-Chloro-4-((3-chloro-4-(trifluoromethoxy)phenoxy)methyl)-2-fluoro-N-(methylsulfonyl)benzamide], with 29 nM.
Then `CS(=O)(=O)NC(=O)c1cc(Cl)c(COc2ccc(OC(F)F)c(Cl)c2)cc1F` [Example 61, 5-Chloro-4-{[3-chloro-4-(difluoromethoxy)phenoxy]methyl}-2-fluoro-N-(methylsulfonyl)benzamide], with less than 300 nM; and `CS(=O)(=O)NC(=O)c1cc(Cl)c(COc2ccc(Cl)c(OC(F)F)c2)cc1F` [Example 62, 5-Chloro-4-{[4-chloro-3-(difluoromethoxy)phenoxy]methyl}-2-fluoro-N-(methylsulfonyl)benzamide], with less than 3000 nM.
Then `CS(=O)(=O)NC(=O)c1cc(Cl)c(COc2ccc(Cl)c(OC(F)(F)F)c2)cc1F` [Example 63, 5-Chloro-4-{[4-chloro-3-(trifluoromethoxy)phenoxy]methyl}-2-fluoro-N-(methylsulfonyl)benzamide], with 35 nM; and `COc1cc(Cl)ccc1OCc1ccc(C(=O)NS(C)(=O)=O)cc1` [Example 64, 4-[(4-Chloro-2-methoxyphenoxy)methyl]-N-(methylsulfonyl)benzamide], with more than 3000 nM.
Take `CS(=O)(=O)NC(=O)c1ccc(COc2ccc(C(F)(F)F)c(Cl)c2)cc1` [Example 65, 4-{[3-Chloro-4-(trifluoromethyl)phenoxy]methyl}-N-(methylsulfonyl)benzamide]: the IC50 was 80 nM.
Next, `COc1cc(COc2cc(F)c(C(=O)NS(C)(=O)=O)cc2F)ccc1Cl` [Example 66, 4-(4-Chloro-3-methoxybenzyloxy)-2,5-difluoro-N-(methylsulfonyl)benzamide]: more than 1000 nM; `CS(=O)(=O)NC(=O)c1cc(F)c(OCc2ccc(Cl)c(C#N)c2)cc1F` [Example 67, 4-(4-Chloro-3-cyanobenzyloxy)-2,5-difluoro-N-(methylsulfonyl)benzamide Diethylamine salt]: 9200 nM; `COc1ccc(COc2cc(F)c(C(=O)NS(C)(=O)=O)cc2F)cc1Cl` [Example 68, 4-(3-Chloro-4-methoxybenzyloxy)-2,5-difluoro-N-(methylsulfonyl)benzamide]: 9800 nM.
Turning to `CS(=O)(=O)NC(=O)c1ccc(COc2ccc(Cl)c(Cl)c2)c(C#N)c1` [Example 69, 5-Cyano-4-((3,4-dichlorophenoxy)methyl)-N-(methylsulfonyl)benzamide Diethylamine salt], the IC50 was 240 nM.
Then `CS(=O)(=O)NC(=O)c1cc(F)c(OCc2ccc(Cl)c(C(F)(F)F)c2)cc1F` [Example 70, 4-(4-Chloro-3-(trifluoromethyl)benzyloxy)-2,5-difluoro-N-(methylsulfonyl) benzamide], with 160 nM; and `COc1ccc(COc2cc(F)c(C(=O)NS(C)(=O)=O)cc2Cl)cc1` [Example 71, 5-chloro-2-fluoro-4-[(4-methoxybenzyl)oxy]-N-(methylsulfonyl)benzamide], with 3900 nM.
